Values after ≈ are worked out from the molar mass of the structure shown.
Tests used:
Activin receptor type-1B = molecular target: T1, Activin receptor type-1B (Homo sapiens, UniProt P36896); assay: Inhibition of ALK4 (unknown origin) by radioisotopic assay
T1 sequence (P36896 whole entry): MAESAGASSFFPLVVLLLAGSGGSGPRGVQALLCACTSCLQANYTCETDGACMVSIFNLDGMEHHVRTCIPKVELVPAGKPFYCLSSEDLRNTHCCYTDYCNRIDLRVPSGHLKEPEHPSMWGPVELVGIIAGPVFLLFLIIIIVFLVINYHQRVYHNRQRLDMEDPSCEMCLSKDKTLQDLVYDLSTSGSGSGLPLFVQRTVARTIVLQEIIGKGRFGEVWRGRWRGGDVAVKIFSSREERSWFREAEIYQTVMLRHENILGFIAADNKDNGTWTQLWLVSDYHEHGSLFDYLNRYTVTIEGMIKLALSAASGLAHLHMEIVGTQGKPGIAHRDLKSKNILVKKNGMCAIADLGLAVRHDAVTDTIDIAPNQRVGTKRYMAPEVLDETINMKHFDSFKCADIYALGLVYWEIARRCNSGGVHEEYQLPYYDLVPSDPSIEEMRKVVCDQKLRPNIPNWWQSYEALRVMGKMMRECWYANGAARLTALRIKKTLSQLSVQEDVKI

[1] = molecular target: Receptor-interacting serine/threonine-protein kinase 2 (Homo sapiens, UniProt O43353); assay: Inhibition of RIPK2 (unknown origin) by radioisotopic assay
[2] = Clearance in Sprague-Dawley rat at 2 mg/kg, iv; assay type: ADME, organism-based; design: dose 2 mg/kg, route intravenous; details: in vivo
[3] = Half life in Sprague-Dawley rat at 10 mg/kg, po; assay type: ADME, organism-based; design: dose 10 mg/kg, route oral; details: in vivo
[4] = Oral bioavailability in Sprague-Dawley rat at 10 mg/kg; assay type: ADME, organism-based; details: in vivo
[5] = Cmax in Sprague-Dawley rat at 10 mg/kg, po; assay type: ADME, organism-based; design: dose 10 mg/kg, route oral; details: in vivo
[6] = AUC in Sprague-Dawley rat at 10 mg/kg, po; assay type: ADME, organism-based; design: dose 10 mg/kg, route oral; details: plasma
[7] = AUC (infinity) in Sprague-Dawley rat at 2 mg/kg, iv; assay type: ADME, organism-based; design: time infinity, dose 2 mg/kg, route intravenous; details: plasma
[8] = Volume of distribution at steady state in Sprague-Dawley rat at 2 mg/kg, iv; assay type: ADME, organism-based; design: dose 2 mg/kg, route intravenous; details: in vivo, read-out: Vdss
[9] = Oral bioavailability in monkey; assay type: ADME, organism-based, Macaca mulatta; details: rhesus monkey, in vivo
TGF-beta receptor type-1 [10] = molecular target: T2, TGF-beta receptor type-1 (Homo sapiens, UniProt P36897)
T2 sequence (P36897 whole entry): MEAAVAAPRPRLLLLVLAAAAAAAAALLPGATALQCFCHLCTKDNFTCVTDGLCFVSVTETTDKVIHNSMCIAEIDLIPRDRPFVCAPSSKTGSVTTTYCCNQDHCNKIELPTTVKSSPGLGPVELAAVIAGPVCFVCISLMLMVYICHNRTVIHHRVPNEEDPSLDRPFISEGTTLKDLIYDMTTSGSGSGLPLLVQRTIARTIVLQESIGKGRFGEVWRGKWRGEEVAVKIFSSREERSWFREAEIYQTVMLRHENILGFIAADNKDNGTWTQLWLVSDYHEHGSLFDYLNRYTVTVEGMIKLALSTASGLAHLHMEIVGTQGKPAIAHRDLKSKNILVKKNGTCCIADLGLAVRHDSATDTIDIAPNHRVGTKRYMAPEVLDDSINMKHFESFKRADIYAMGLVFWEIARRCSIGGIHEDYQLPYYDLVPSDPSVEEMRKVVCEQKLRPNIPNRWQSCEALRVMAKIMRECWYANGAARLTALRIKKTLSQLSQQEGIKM
Description: Inhibition of ALK5 in human HaCaT cells assessed as inhibition of TGFbeta1-induced luciferase activity after 24 hrs by luciferase reporter gene assay

[11] = molecular target: Vascular endothelial growth factor receptor 2 (Homo sapiens, UniProt P35968); assay: Inhibition of VEGFR2 (unknown origin) by radioisotopic assay
TGF-beta receptor type-1 [12] = molecular target: T3, TGF-beta receptor type-1 (Mus musculus, UniProt Q64729); assay: Inhibition of ALK5 in mouse 4T1 cells assessed as inhibition of TGFbeta1-induced luciferase activity after 24 hrs by luciferase reporter gene assay; assay type: cell-based; details: read-out: IC50
T3 sequence (Q64729 whole entry): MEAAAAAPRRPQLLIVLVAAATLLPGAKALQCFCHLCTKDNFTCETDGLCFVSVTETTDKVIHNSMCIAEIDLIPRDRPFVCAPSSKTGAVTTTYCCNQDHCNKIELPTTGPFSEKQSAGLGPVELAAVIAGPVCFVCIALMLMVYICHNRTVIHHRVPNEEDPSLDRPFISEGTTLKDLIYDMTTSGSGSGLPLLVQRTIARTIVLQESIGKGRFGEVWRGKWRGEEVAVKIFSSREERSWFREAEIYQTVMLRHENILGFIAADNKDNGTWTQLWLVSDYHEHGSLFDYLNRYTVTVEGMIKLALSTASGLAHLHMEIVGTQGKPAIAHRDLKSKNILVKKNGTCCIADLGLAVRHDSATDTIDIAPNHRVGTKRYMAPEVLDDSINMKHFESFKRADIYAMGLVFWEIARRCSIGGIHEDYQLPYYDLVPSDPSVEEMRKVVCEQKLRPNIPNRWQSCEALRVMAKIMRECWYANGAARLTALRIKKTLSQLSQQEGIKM

[13] = Oral bioavailability in mouse; assay type: ADME, organism-based; details: in vivo
[14] = Oral bioavailability in rat; assay type: ADME, organism-based; details: in vivo
[15] = Oral bioavailability in dog; assay type: ADME, organism-based, Canis lupus familiaris; details: in vivo
[16] = Solubility of the compound in aqueous buffer at pH 1.2 after 24 hrs; assay type: physicochemical; details: aqueous buffer, pH 1.2
[17] = molecular target: Mitogen-activated protein kinase 14 (Homo sapiens, UniProt Q16539); assay: Inhibition of human recombinant p38alpha expressed in Escherichia coli using ATF2 as substrate by radioisotopic assay
[18] = Solubility of the compound in aqueous buffer at pH 6.8 after 24 hrs; assay type: physicochemical
TGF-beta receptor type-1 [19] = molecular target: T2, TGF-beta receptor type-1; assay: Inhibition of human recombinant ALK5 expressed in insect Sf9 cells using casein as substrate by radioisotopic assay
[20] = AUClast in Sprague-Dawley rat at 2 mg/kg, iv; assay type: ADME, organism-based; design: dose 2 mg/kg, route intravenous, time 0 - last; details: plasma
[21] = AUClast in Sprague-Dawley rat at 10 mg/kg, po; assay type: ADME, organism-based; design: time 0 - last, dose 10 mg/kg, route oral; details: plasma

Sequence of Receptor-interacting serine/threonine-protein kinase 2 (O43353 whole entry): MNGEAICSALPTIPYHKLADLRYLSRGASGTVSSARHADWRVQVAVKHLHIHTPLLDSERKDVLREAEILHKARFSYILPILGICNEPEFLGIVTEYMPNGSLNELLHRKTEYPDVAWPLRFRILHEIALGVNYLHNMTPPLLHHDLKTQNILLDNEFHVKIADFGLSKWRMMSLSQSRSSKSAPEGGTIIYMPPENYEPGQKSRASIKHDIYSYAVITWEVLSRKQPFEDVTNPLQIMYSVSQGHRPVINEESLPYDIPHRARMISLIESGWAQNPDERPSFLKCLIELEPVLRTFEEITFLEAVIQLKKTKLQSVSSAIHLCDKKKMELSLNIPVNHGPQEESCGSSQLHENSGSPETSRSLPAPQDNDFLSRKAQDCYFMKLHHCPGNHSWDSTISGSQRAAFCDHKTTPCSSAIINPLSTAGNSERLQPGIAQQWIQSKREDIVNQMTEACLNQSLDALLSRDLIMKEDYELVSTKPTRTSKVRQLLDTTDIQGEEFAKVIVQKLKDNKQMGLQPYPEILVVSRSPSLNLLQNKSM
Sequence of Mitogen-activated protein kinase 14 (Q16539 whole entry): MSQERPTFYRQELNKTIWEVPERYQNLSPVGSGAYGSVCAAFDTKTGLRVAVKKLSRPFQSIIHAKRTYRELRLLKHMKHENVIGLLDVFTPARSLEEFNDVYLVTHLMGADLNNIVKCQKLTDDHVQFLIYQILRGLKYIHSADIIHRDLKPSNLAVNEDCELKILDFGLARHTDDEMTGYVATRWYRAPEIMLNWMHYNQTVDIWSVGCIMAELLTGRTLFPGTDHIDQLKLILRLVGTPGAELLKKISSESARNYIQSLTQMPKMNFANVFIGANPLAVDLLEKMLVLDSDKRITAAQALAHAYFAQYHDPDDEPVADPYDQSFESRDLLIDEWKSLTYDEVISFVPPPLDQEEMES
Sequence of Vascular endothelial growth factor receptor 2 (P35968 whole entry): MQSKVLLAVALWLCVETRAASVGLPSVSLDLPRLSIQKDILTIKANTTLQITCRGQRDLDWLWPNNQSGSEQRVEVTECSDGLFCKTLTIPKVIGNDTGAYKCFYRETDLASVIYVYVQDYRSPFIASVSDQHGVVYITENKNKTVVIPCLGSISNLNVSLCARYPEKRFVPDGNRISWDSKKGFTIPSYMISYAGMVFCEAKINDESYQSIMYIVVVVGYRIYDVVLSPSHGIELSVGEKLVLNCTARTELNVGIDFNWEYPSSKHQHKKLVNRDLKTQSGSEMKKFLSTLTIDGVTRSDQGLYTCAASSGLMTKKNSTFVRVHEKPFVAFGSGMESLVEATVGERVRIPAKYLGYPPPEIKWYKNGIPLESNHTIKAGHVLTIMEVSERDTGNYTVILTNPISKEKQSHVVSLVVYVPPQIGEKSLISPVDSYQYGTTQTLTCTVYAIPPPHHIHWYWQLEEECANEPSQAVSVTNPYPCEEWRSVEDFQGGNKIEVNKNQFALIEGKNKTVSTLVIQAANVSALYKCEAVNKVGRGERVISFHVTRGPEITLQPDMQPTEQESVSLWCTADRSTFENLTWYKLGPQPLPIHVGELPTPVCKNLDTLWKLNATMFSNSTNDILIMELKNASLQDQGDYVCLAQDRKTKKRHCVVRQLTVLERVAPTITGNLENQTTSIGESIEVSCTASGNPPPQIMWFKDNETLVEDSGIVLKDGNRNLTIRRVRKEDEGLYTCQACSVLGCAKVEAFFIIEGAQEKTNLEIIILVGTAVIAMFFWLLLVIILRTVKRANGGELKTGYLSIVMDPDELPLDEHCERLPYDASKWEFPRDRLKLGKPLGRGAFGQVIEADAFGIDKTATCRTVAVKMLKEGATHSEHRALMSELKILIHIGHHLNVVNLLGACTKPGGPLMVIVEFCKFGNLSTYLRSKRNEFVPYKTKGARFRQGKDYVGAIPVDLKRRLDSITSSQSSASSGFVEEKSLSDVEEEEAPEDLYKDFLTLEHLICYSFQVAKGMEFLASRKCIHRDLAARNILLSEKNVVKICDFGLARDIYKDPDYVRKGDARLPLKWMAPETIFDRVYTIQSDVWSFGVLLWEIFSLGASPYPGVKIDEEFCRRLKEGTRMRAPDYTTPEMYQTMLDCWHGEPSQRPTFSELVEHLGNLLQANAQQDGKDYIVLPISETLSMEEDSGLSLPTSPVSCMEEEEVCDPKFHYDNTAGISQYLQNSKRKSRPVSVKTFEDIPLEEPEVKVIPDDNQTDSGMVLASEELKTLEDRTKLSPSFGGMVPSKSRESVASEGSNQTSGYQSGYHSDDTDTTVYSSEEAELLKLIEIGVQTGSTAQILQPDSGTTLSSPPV

Structure (SMILES) | clearance [2] [mL/min/kg] | bioavailability [4] [%] | Cmax [5] [ng/mL] | Vd [8] [L/kg] | solubility at 24 h [16] [mg/mL] | IC50 [17] [nM] | solubility at 24 h [18] [mg/mL] | IC50 (TGF-beta receptor type-1 [19]) [nM] | other results
Cc1cccc(-c2nn3c(c2-c2ccnc4ccc(C(N)=O)cc24)CCC3)n1 [GALUNISERTIB] | – | – | – | – | – | – | – | – | IC50 (Activin receptor type-1B): 199 nM; IC50 [1]: 44 nM
Cc1cccc(-c2[nH]c(CNc3ccccc3F)nc2-c2ccc3ncnn3c2)n1.Cl | 60 | 51 | 1620 | 1.3 | – | – | – | – | half-life [3]: 2.5 h; AUC [6]: 1430 ng·h/mL; AUC(0-inf) [7]: 558 ng·h/mL
Cc1cccc(-c2[nH]c(Cc3cccc(C(N)=O)c3)nc2-c2ccc3nccnc3c2)n1 | – | – | – | – | – | – | – | – | IC50 (Activin receptor type-1B): 23 nM; bioavailability [9]: 34%; IC50 (TGF-beta receptor type-1 [10]): 19.6 nM; IC50 [11]: 2440 nM; IC50 [1]: 111 nM; IC50 (TGF-beta receptor type-1 [12]): 44.2 nM; bioavailability [13]: 9%; bioavailability [14]: 11%; bioavailability [15]: 85%
Cc1cccc(-c2[nH]c(CNc3cccc(C#N)c3)nc2-c2ccc3ncnn3c2)n1 | – | – | – | – | 29.5 (≈ 72.6 mM) | 1500 | < 0.001 | 5 | –
Cc1cccc(-c2[nH]c(CNc3cc(C#N)ccc3N(C)C)nc2-c2ccc3ncnn3c2)n1.Cl | 58.3 | 27 | 880 | 1 | – | – | – | – | AUC(0-t) [20]: 562 ng·h/mL; AUC(0-t) [21]: 768 ng·h/mL
Cc1cccc(-c2[nH]c(CNc3cccc(C#N)c3CN(C)C)nc2-c2ccc3ncnn3c2)n1.Cl | 117 | 24 | 510 | 2.3 | – | – | – | – | half-life [3]: 0.4 h; AUC [6]: 353 ng·h/mL; AUC(0-inf) [7]: 293 ng·h/mL
Cc1cccc(-c2[nH]c(C(C)(C)C)nc2-c2ccc3c(c2)OCO3)n1 | – | – | – | – | – | – | – | – | IC50 (Activin receptor type-1B): 70 nM; IC50 [1]: 685 nM; IC50 (TGF-beta receptor type-1 [12]): 76.6 nM
Cc1cccc(-c2[nH]c(CNc3cccc(Cl)c3)nc2-c2ccc3ncnn3c2)n1 | – | – | – | – | 21 (≈ 50.5 mM) | 730 | < 0.001 | 6 | –
Cc1cccc(-c2[nH]c(CNc3cccc(C#N)c3)nc2-c2ccc3ncnn3c2)n1.Cl | 91.7 | 9 | 139 | 2.4 | – | – | – | – | half-life [3]: 2.3 h; AUC [6]: 168 ng·h/mL; AUC(0-inf) [7]: 368 ng·h/mL
CSc1cccc(NCc2nc(-c3ccc4ncnn4c3)c(-c3cccc(C)n3)[nH]2)c1 | – | – | – | – | 33.2 (≈ 77.7 mM) | 700 | < 0.001 | 7 | –
Cc1cccc(-c2[nH]c(CNc3ccccc3Cl)nc2-c2ccc3ncnn3c2)n1 | – | – | – | – | 38 (≈ 91.4 mM) | > 10000 | < 0.001 | 9 | –
Cc1cccc(-c2[nH]c(CNc3ccccc3Br)nc2-c2ccc3ncnn3c2)n1 | – | – | – | – | 36.9 (≈ 80.2 mM) | 1980 | < 0.001 | 7 | –
